Article PMC10458458, “Characterization of Anticancer Effects of the Analogs of DJ4, a Novel Selective Inhibitor of ROCK and MRCK Kinases” (Pharmaceuticals, 2023)

Experiments:
Format in all cases: cell-based, human
[1] = test system: pMYPT1 (Thr696 and Thr853) in MDA-MB-231 cells; assay: Western blot of MYPT1 phosphorylation (ROCK1/2 targeting); conditions: MDA-MB-231, 2.5, 5.0 and 10 µM, 24 h
Protocol: (§1) To extend these observations to MDA-MB-231 breast cancer cells, cells were treated with DJ4 at 2.5, 5.0, and 10 µM for 24 h. ROCK1/2 catalyzes the inactivating phosphorylation of the myosin phosphatase subunit MYPT1 at Thr696 and Thr853 [16]. To confirm the targeting of ROCK1/2 by DJ4 in MDA-MB-231 cells, we probed for phosphorylation of MYPT1.
(§2) For protein expression studies, MDA-MB-231 cells were treated with indicated concentrations of DJ4 for 24 h. Additionally, A549 cells were treated for 24 h and 48 h. Cell lysate preparation, protein estimation, and Western blot analysis was performed as per the procedure reported earlier. The blots were probed with cleaved caspase 7 (#9492, Cell Signaling, Danvers, MA, USA), GAPDH (#97166, Cell Signaling, Danvers, MA, USA), β-Actin (#3700, Cell Signaling, Danvers, MA, USA), pErk (#5726, Cell Signaling, Danvers, MA, USA), p21 ^WAF1/CIP1 (#60480, Cell Signaling, Danvers, MA, USA), cyclinD3 (#2936, Cell Signaling, Danvers, MA, USA), CDK4 (#23972, Cell Signaling, Danvers, MA, USA), cleaved PARP (#32563, Cell Signaling, Danvers, MA, USA), pan Erk (#23887, Cell Signaling, Danvers, MA, USA), pMYPT1 (Thr853, # SAB4503944, Millipore, Inc., Burlington, MA, USA) and PCNA (#sc-56, Santa Cruz Biotechnology, Inc., Dallas, TX, USA) antibodies.

[2] = test system: A549 lung cancer cells; assay: Cell cycle analysis (propidium iodide, flow cytometry); conditions: A549, serum-starved, 24 h (vehicle 1%)
Protocol: Since DJ4 inhibits phosphorylation of MLC, we hypothesized that DJ4-treated cells are unable to complete cell division and arrest in G2/M phase of the cell cycle. To test this hypothesis, A549 lung cancer cells were synchronized in the G1 phase by serum-starvation for 24 h. After serum replenishment, cells were further treated with 2.5 µM, 5 µM, and 10 µM DJ-4 for 16-, 24-, and 48 h (Figure 3A). Before treatment with DJ4 (time zero), about 80% of cells were in the G1 phase, 20% in the G2/M phase, and essentially none in the S phase. In vehicle treated control cells, there were minimal cells in the G2/M phase at both 24 h (1%) and 48 h (8%). […] At 48 h, cells remained arrested in the G2/M phase, but also, there was an increase in the sub-G1 cell population indicating apoptotic cells.
Figure 3 DJ4 arrests A549 lung cancer cells in G2/M phase and induces apoptotic cell death in NSCLC and breast cancer cells. (A). A549 cells were serum-starved for 24 h and treated for 16 h, 24 h, and 48 h with indicated concentrations. Propidium iodide stained cells were analyzed for DNA content by flow cytometry. The cell cycle graphs indicate distribution of cells in the G1, S, and G2/M phases of cell cycle. Sub-G1 cell population indicates apoptotic cells. (B). Annexin V staining of A549 cells. The cells were treated with indicated concentrations and durations. Percent annexin V + cells were analyzed using Muse^TM cell analyzer. Error bars indicate SEM. n = 2. (C). Analysis of annexin V + ve and mitochondrial membrane depolarized cells. MDA-MB-231 cells were treated for 48 h at the indicated concentrations. Staurosporin (2.5 µM) was used as a positive control. Error bars indicate SEM. n = 2. * p < 0.05. […] These are best readings and their digits are not certain: DMSO 7 and 14; DJ4 1.25 μM 10 and 22; DJ4 2.5 μM 23 and 40; Staurosporin 12 and 40 / Panel B, 24 h: the ** is read as belonging to the 5 μM bar (10), not the 2.5 μM bar (8); this is not fully certain […]

[3] = test system: MDA-MB-231 breast cancer cells; assay: Western blot of proliferation and apoptosis proteins; conditions: 24 h
Protocol: as §1
In contrast, expression of proliferating cell nuclear antigen (PCNA) protein was decreased at all the concentrations (Figure 4C). PCNA is highly expressed during active DNA synthesis (S phase).
as §2

[4] = MDA-MB-231, all concentrations (2.5, 5.0, 10 µM)

O=C1N/C(=N\CCc2ccccc2)S/C1=C/c1c[nH]c2ncccc12 [DJ4]
pMYPT1 (Thr696 and Thr853) [1]: concentration-dependent decrease | G2/M cell population ([2]; 2.5 µM): 31% | G2/M cell population ([2]; 5 µM): 42% | G2/M cell population ([2]; 10 µM): 45% | expression of pErk ([3]; MDA-MB-231, 2.5, 5.0 and 10 µM): significantly increased | cleaved PARP [3, 4]: corresponding increases | expression of PCNA [3, 4]: decreased | expression of cleaved caspase 7 [3, 4]: significantly increased
